US4657927A, “Malonato platinum compounds” (Research Corporation, priority 1983, dated 1987)

Tests used:
[1] = system: Sarcoma 180; assay: Antitumor activity, solid sarcoma 180 tumor, T/C of tumor weights at day 10 (Table I); type: in vivo, female Swiss white mice
Experimental: The compounds of the invention were tested for antitumor activity, i.e., for sensitivity to a planar dsp^2 platinum(II) coordination compound or an octahedral d^2 sp^3 platinum(IV) coordination compound using our standard screening tumor, solid sarcoma 180 tumor in female Swiss white mice, following standard protocols for this testing as set by the National Cancer Institute. (Cancer Chemotherapy Rep., 25 (1962)).
For these tests an S 180 tumor taken from a sacrificed mouse was disected free of superfluous tissue and cut under sterile conditions into approximately 10 milligram size pieces. These tissue pieces were then implanted by trocar in the left axillary region, subcutaneously, in new mice. The mice were, on the average, approximately four weeks old and weighed 18-20 grams. Taking day 0 as the day of implant, the animals were sacrificed on day 10. The tumors were excised and weighed and the ratio of the weights of the tumors in mice in the treated animals to the control set of animals was obtained. This ratio, multiplied by 100, is given as the T/C ratio in Table I.
For the first set of tests the coordination compound was freshly dissolved in sterile distilled water and injected intraperitoneally on day 1 into each of the test mice. The volume of the injection was usually 1/2 ml. In some cases, in order to get an active dose into the animal where the chemical was not soluble in this amount of solvent, a fine dispersion was prepared of the dose needed for the test. Thus, some of our test results were obtained on animals where a slurry of the compound was injected. These are so noted in Table I below. In addition, for some of the compounds, there was injected about 1 ml of solution, either in one single injection, or in 2 injections given a few hours apart of 1/2 ml each. These injections were initially given in 4 different dose levels for each new compound with 6 mice in each dose level. The tests covered a dose range from a low ineffective dose, to an upper dose level which produced some deaths within the time period of the experiment.

[2] = system: ADJ/PC6A; assay: Confirmatory antitumor test, ADJ/PC6A tumor (Table III); type: in vivo, Mouse; conditions: single injection day 25 in oil, i.p.
Experimental: (§1) Confirmatory tests of antitumor activity against the Walker 256 Carcinosarcoma in rats, and the ADJ/PC6A tumor in mice were conducted. The initial test results are shown in Table III and confirm the potent action of the compounds of the invention against these other tumor systems.

[3] = system: Sarcoma 180; assay: Large Sarcoma 180 regressions, injection on day 8 (Table II); type: in vivo, female Swiss white mice; conditions: single i.p. injection on day 8, H2O solution
Experimental: In addition to the day 1 injections described above, in a number of case injections were delayed until day 8 of tumor growth. In these cases the tumor was usually at least larger than 1/2 gm, as estimated by palpation. The animals were then injected and observed for a period of approximately 60 days. Activity was measured by the number of animals whose tumors had regressed to the vanishing point, while still allowing the animal to survive for this time period. Such test results are described in TABLE II below.

[4] = system: Walker 256 Carcinosarcoma; assay: Confirmatory antitumor test, Walker 256 Carcinosarcoma (Table III); type: in vivo, Rat; conditions: single injection day 1 in oil, i.p.
Experimental: as §1

[5] = system: L1210; assay: Confirmatory antitumor test at the National Cancer Institute, L1210 (Table IV); type: in vivo, Mice
Text: Samples of the malonato diammine and malonato ethylene diamine complexes of platinum(II) were submitted to the Drug Research and Development Branch of the National Cancer Institute for screening for antitumor activity against the L1210 tumor in mice. They confirm the activity of the compounds of the invention.

[6] = dose level 20 (unit not given), single i.p. injection day 1
[7] = dose level 40 (unit not given), single i.p. injection day 1
[8] = dose level 60 (unit not given), single i.p. injection day 1
[9] = dose level 80 (unit not given), single i.p. injection day 1
[10] = 10 mg/kg, single i.p. injection day 1, solution in H2O
[11] = 20 mg/kg, single i.p. injection day 1, solution in H2O
[12] = 40 mg/kg, single i.p. injection day 1, solution in H2O
[13] = 45 mg/kg, single i.p. injection day 1, solution in H2O
[14] = 50 mg/kg, single i.p. injection day 1, solution in H2O
[15] = 55 mg/kg, single i.p. injection day 1, solution in H2O
[16] = 60 mg/kg, single i.p. injection day 1, solution in H2O
[17] = 80 mg/kg, single i.p. injection day 1, solution in H2O
[18] = dose level 100 (unit not given), single i.p. injection day 1
[19] = dose level 120 (unit not given), single i.p. injection day 1
[20] = 20 mg/kg, single i.p. injection day 1
[21] = 40 mg/kg, single i.p. injection day 1
[22] = 60 mg/kg, single i.p. injection day 1
[23] = 80 mg/kg, single i.p. injection day 1
[24] = 100 mg/kg, single i.p. injection day 1
[25] = 120 mg/kg, single i.p. injection day 1
[26] = 160 mg/kg, single i.p. injection day 1
[27] = dose level 90 (unit not given), single i.p. injection day 1
[28] = dose level 110 (unit not given), single i.p. injection day 1
[29] = dose level 45 (unit not given), single i.p. injection day 1
[30] = dose level 75 (unit not given), single i.p. injection day 1
[31] = 30 mg/kg, single i.p. injection day 1, solution in H2O
[32] = 70 mg/kg, single i.p. injection day 1, solution in H2O
[33] = 90 mg/kg, single i.p. injection day 1, solution in H2O
[34] = 140 mg/kg, single i.p. injection day 1
[35] = 180 mg/kg, single i.p. injection day 1

## NCCCN.O=C([O-])CC(=O)[O-].[Pt+2] [malonato-1,3 propylenediamineplatinum (II)]
[1]; [6]
  No. of Deaths: 0
  T/C: 69
[1]; [7]
  No. of Deaths: 0
  T/C: 79
[1]; [8]
  No. of Deaths: 0
  T/C: 21
[1]; [9]
  No. of Deaths: 1
  T/C: 35

## NCCN.O=C([O-])CC(=O)[O-].[Pt+2] [malonatoethylenediamineplatinum (II)]
[1]; [10]
  No. of Deaths: 0
  T/C: 88
[1]; [11]
  No. of Deaths: 0
  T/C: 58
[1]; [12]
  No. of Deaths: 0
  T/C: 18
[1]; [13]
  No. of Deaths: 0
  T/C: 49
[1]; [14]
  No. of Deaths: 0
  T/C: 35
[1]; [15]
  No. of Deaths: 0
  T/C: 38
[1]; [16]
  No. of Deaths: 3/6
  T/C: 15
[1]; [17]
  No. of Deaths: 3/6
  T/C: 24
[1]; [8]
  No. of Deaths: 0
  T/C: 80
[1]; [9]
  No. of Deaths: 0
[1]; [18]
  No. of Deaths: 0
  T/C: 85
[1]; [19]
  No. of Deaths: 0
  T/C: 50
[2]; dose 4 (unit not given)
  % Inhibition: 1.3%
  Deaths: 0
[2]; dose 20 (unit not given)
  % Inhibition: 94%
  Deaths: 0
[2]; dose 100 (unit not given)
  % Inhibition: 100%
  Deaths: 0
[2]; dose 500 (unit not given)
  Deaths: all
[3]; 40 mg/kg
  Deaths: 3
  Total Number of Regressions: 3
[3]; 45 mg/kg
  Deaths: 5
  Total Number of Regressions: 1
[3]; 50 mg/kg
  Deaths: 4
  Total Number of Regressions: 2
[3]; 60 mg/kg
  Deaths: 3
  Total Number of Regressions: 3
[4]; dose 10 (unit not given)
  % Inhibition: 1%
  Deaths: 0
[4]; dose 20 (unit not given)
  % Inhibition: 25%
  Deaths: 0
[4]; dose 40 (unit not given)
  % Inhibition: 100%
  Deaths: 0
[4]; dose 80 (unit not given)
  % Inhibition: 100%
  Deaths: 0
[4]; dose 160 (unit not given)
  Deaths: all
[5]; 11 mg/kg, daily injections days 1-9, i.p. (repeat test)
  % Increase in Lifespan: 145%
[5]; 12.5 mg/kg, daily injections days 1-9, i.p.
  % Increase in Lifespan: 151%
[5]; 16.5 mg/kg, daily injections days 1-9, i.p. (repeat test)
  % Increase in Lifespan: 160%
[5]; 25 mg/kg, daily injections days 1-9, i.p.
  % Increase in Lifespan: 160%
[5]; 25 mg/kg, daily injections days 1-9, i.p. (repeat test)
  % Increase in Lifespan: 196%
[5]; 37.5 mg/kg, daily injections days 1-9, i.p. (repeat test)
  % Increase in Lifespan: 121%
[5]; 50 mg/kg, daily injections days 1-9, i.p.
  % Increase in Lifespan: 101%

## N.N.O=C([O-])C1(C(=O)[O-])CCC1.[Pt+4] [1,1-cyclobutanedicarboxylate diammineplatinum (II)]
[1]; [20]
  No. of Deaths: 0
  T/C: 71
[1]; [21]
  No. of Deaths: 0
  T/C: 60
[1]; [22]
  No. of Deaths: 0
  T/C: 38
[1]; [23]
  No. of Deaths: 0
  T/C: 42
[1]; [24]
  No. of Deaths: 0
  T/C: 69
[1]; [25]
  No. of Deaths: 0
  T/C: 18
[1]; [26]
  No. of Deaths: 4
  T/C: 62

## CCC1C(=O)[O][Pt]2([NH]CC[NH]2)[O]C1=O [ethylmalonatoethylenediamineplatinum (II)]
[1]; [7]
  No. of Deaths: 0
  T/C: 72
[1]; [8]
  No. of Deaths: 0
  T/C: 81
[1]; [9]
  No. of Deaths: 0
  T/C: 79
[1]; [27]
  No. of Deaths: 0
  T/C: 47
[1]; [18]
  No. of Deaths: 1
  T/C: 55
[1]; [28]
  No. of Deaths: 0
  T/C: 41
[1]; [19]
  No. of Deaths: 0
  T/C: 58

## CC(N)CN.O=C([O-])CC(=O)[O-].[Pt+2] [malonato-1,2 propylenediamineplatinum (II)]
[1]; [29]
  No. of Deaths: 0
  T/C: 50
[1]; [8]
  No. of Deaths: 1
  T/C: 9
[1]; [30]
  No. of Deaths: 3
  T/C: 16
[1]; [27]
  No. of Deaths: 5

## CCC(C(=O)[O-])C(=O)[O-].N.N.[Pt+2] [ethylmalonatodiammineplatinum (II)]
[1]; [31]
  No. of Deaths: 0
  T/C: 57
[1]; [12]
  No. of Deaths: 0
  T/C: 43
[1]; [14]
  No. of Deaths: 0
  T/C: 47
[1]; [16]
  No. of Deaths: 0
  T/C: 39
[1]; [32]
  No. of Deaths: 0
  T/C: 17
[1]; [17]
  No. of Deaths: 0
  T/C: 16

## CC1C(=O)[O][Pt]2([NH]CC[NH]2)[O]C1=O [methylmalonatoethylenediamineplatinum(II)]
[1]; [31]
  No. of Deaths: 0
  T/C: 78
[1]; [12]
  No. of Deaths: 0
  T/C: 80
[1]; [14]
  No. of Deaths: 0
  T/C: 51
[1]; [16]
  No. of Deaths: 0
  T/C: 26
[1]; [32]
  No. of Deaths: 1
  T/C: 20
[1]; [33]
  No. of Deaths: 1
  T/C: 4

## CN.CN.O=C([O-])CC(=O)[O-].[Pt+2] [malonatobis (methylamine) platinum (II)]
[1]; [23]
  No. of Deaths: 0
  T/C: 58
[1]; [24]
  No. of Deaths: 0
  T/C: 53
[1]; [25]
  No. of Deaths: 0
  T/C: 28
[1]; [34]
  No. of Deaths: 0
  T/C: 25
[1]; [26]
  No. of Deaths: 1
  T/C: 17
[1]; [35]
  No. of Deaths: 1
  T/C: 19

## CC1C(=O)[O][Pt]([NH2])([NH2])[O]C1=O [Methylmalonatodiammineplatinum (II)]
[1]; [31]
  No. of Deaths: 0
  T/C: 39
[1]; [12]
  No. of Deaths: 0
  T/C: 26
[1]; [14]
  No. of Deaths: 0
  T/C: 35
[1]; [16]
  No. of Deaths: 0
  T/C: 6
[1]; [32]
  No. of Deaths: 3/6
[1]; [17]
  No. of Deaths: 6/6
